According to patent US9540391B2, “Isomannide derivatives as inhibitors of soluble epoxide hydrolase” (SANOFI, priority 2013, dated 2017):
Where a name gives a salt, the structure may show the parent alone.

target: T1, recombinant sEH (Homo sapiens, UniProt P34913); assay: biochemical screening assay for inhibition of soluble epoxide hydrolase (fluorometric, Phome substrate)
T1 construct: made in house; host or cells: Sf9 insect cells
T1 sequence (P34913 1-555): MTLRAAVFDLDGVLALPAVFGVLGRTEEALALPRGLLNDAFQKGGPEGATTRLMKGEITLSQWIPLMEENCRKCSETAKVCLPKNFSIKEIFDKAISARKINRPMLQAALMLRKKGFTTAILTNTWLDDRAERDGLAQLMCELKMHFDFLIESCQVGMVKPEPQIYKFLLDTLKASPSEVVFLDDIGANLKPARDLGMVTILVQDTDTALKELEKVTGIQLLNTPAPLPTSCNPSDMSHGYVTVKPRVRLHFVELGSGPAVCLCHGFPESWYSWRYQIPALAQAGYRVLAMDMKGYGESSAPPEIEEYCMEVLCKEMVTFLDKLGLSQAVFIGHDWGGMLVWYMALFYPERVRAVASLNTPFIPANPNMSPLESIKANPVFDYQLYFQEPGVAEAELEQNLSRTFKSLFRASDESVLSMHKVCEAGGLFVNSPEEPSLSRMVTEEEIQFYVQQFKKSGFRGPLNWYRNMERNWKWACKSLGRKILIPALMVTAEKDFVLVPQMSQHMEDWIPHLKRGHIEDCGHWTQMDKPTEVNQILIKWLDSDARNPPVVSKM
Procedure, shortened: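 Human sEH from Sf9 cells (2 nM final) was pre-incubated 15 min at 30 °C with compound (0.0001–10 μM), then reacted 60 min at 30 °C with 5 μM Phome in 25 mM Hepes/0.01% albumin. Fluorescence of released 6-methoxy-2-naphthaldehyde was read before substrate and at end; IC50 from % inhibition.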

Row | SMILES | IC50 [nM]
1 | O=C(NC1CCCCC1)N[C@H]1CO[C@H]2[C@@H]1OC[C@@H]2Oc1ccc2cc(Br)ccc2c1 [Example 99, 1-[(3S,3aR,6S,6aS)-6-(6-Bromo-naphthalen-2-yloxy)-hexahydro-furo-[3,2-b]furan-3-yl]-3-cyclohexyl-urea] | 12
2 | O=C(NC1CCCCC1)N[C@H]1CO[C@H]2[C@@H]1OC[C@@H]2Oc1cccc(N2CCOCC2)c1 [Example 100, 1-Cyclohexyl-3-[(3S,3aR,6S,6aS)-6-(3-morpholin-4-yl-phenoxy)-hexa-hydro-furo[3,2-b]furan-3-yl]-urea] | 2
3 | O=C(NC1CCCCC1)N[C@H]1CO[C@H]2[C@@H]1OC[C@@H]2Oc1ccc(C(F)(F)F)cc1 [Example 101, 1-Cyclohexyl-3-[(3S,3aR,6S,6aS)-6-(4-trifluoromethyl-phenoxy)-hexa-hydro-furo[3,2-b]furan-3-yl]-urea] | 4
4 | CC(=O)Nc1cccc(O[C@H]2CO[C@H]3[C@@H]2OC[C@@H]3NC(=O)NC2CCCCC2)c1 [Example 102, N-{3-[(3S,3aS,6S,6aR)-6-(3-Cyclohexyl-ureido)-hexahydro-furo[3,2-b]furan-3-yloxy]-phenyl}-acetamide] | 2
5 | CC(C)(C)c1ccc(O[C@H]2CO[C@H]3[C@@H]2OC[C@@H]3NC(=O)NC2CCCCC2)cc1 [Example 103, 1-[(3S,3aR,6S,6aS)-6-(4-tert-Butyl-phenoxy)-hexahydro-furo[3,2-b]furan-3-yl]-3-cyclohexyl-urea] | 7
6 | O=C(NC1CCCCC1)N[C@H]1CO[C@H]2[C@@H]1OC[C@@H]2Oc1cccc(-c2ccccc2)c1 [Example 104, 1-[(3S,3aR,6S,6aS)-6-(Biphenyl-3-yloxy)-hexahydro-furo[3,2-b]furan-3-yl]-3-cyclohexyl-urea] | 5
7 | O=C(NC1CCCCC1)N[C@H]1CO[C@H]2[C@@H]1OC[C@@H]2Oc1ccc(-c2ccccc2)cc1 [Example 105, 1-[(3S,3aR,6S,6aS)-6-(Biphenyl-4-yloxy)-hexahydro-furo[3,2-b]furan-3-yl]-3-cyclohexyl-urea] | 7
8 | CC(=O)c1cccc(O[C@H]2CO[C@H]3[C@@H]2OC[C@@H]3NC(=O)NC2CCCCC2)c1 [Example 106, 1-[(3S,3aR,6S,6aS)-6-(3-Acetyl-phenoxy)-hexahydro-furo[3,2-b]furan-3-yl]-3-cyclohexyl-urea] | 3
9 | O=C(NC1CCCCC1)N[C@H]1CO[C@H]2[C@@H]1OC[C@@H]2Oc1cccc(N2CCCC2=O)c1 [Example 107, 1-Cyclohexyl-3-{(3S,3aR,6S,6aS)-6-[3-(2-oxo-pyrrolidin-1-yl)-phenoxy]-hexahydro-furo[3,2-b]furan-3-yl}-urea] | 2
10 | O=C(NC1CCCCC1)N[C@H]1CO[C@H]2[C@@H]1OC[C@@H]2Oc1cccc(C2CCNCC2)c1 [Example 108, 1-Cyclohexyl-3-[(3S,3aR,6S,6aS)-6-(3-piperidin-4-yl-phenoxy)-hexahydro-furo[3,2-b]furan-3-yl]-urea; trifluoroacetate] | 23
11 | O=C(NC1CCCCC1)N[C@H]1CO[C@H]2[C@@H]1OC[C@@H]2Oc1ccc(Oc2ccccn2)cc1 [Example 109, 1-Cyclohexyl-3-{(3S,3aR,6S,6aS)-6-[4-(pyridin-2-yloxy)-phenoxy]-hexa-hydro-furo[3,2-b]furan-3-yl}-urea] | 1
12 | O=C(NC1CCCCC1)N[C@H]1CO[C@H]2[C@@H]1OC[C@@H]2Oc1ccccc1C(=O)N1CCCC1 [Example 110, 1-Cyclohexyl-3-{(3S,3aR,6S,6aS)-6-[2-(pyrrolidine-1-carbonyl)-phenoxy]-hexahydro-furo[3,2-b]furan-3-yl}-urea] | 140
13 | COC(=O)c1cncc(O[C@H]2CO[C@H]3[C@@H]2OC[C@@H]3NC(=O)NC2CCCCC2)c1 [Example 111, 5-[(3S,3aS,6S,6aR)-6-(3-Cyclohexyl-ureido)-hexahydro-furo[3,2-b]furan-3-yloxy]-nicotinic acid methyl ester] | 1
14 | O=C(NC1CCCCC1)N[C@H]1CO[C@H]2[C@@H]1OC[C@@H]2Oc1ccc(-n2cncn2)cc1 [Example 112, 1-Cyclohexyl-3-[(3S,3aR,6S,6aS)-6-(4-[1,2,4]triazol-1-yl-phenoxy)-hexahydro-furo[3,2-b]furan-3-yl]-urea; trifluoroacetate] | 1
15 | CC(=O)Nc1ccc(O[C@H]2CO[C@H]3[C@@H]2OC[C@@H]3NC(=O)NC2CCCCC2)cc1 [Example 113, N-{4-[(3S,3aS,6S,6aR)-6-(3-Cyclohexyl-ureido)-hexahydro-furo[3,2-b]furan-3-yloxy]-phenyl}-acetamide] | 3
16 | CC1(C)CC(=O)c2cc(O[C@H]3CO[C@H]4[C@@H]3OC[C@@H]4NC(=O)NC3CCCCC3)ccc2O1 [Example 114, 1-Cyclohexyl-3-[(3S,3aR,6S,6aS)-6-(2,2-dimethyl-4-oxo-chroman-6-yloxy)-hexahydro-furo[3,2-b]furan-3-yl]-urea] | 4
17 | O=C(NC1CCCCC1)N[C@H]1CO[C@H]2[C@@H]1OC[C@@H]2Oc1ccccc1 [Example 115, 1-Cyclohexyl-3-((3S,3aR,6S,6aS)-6-phenoxy-hexahydro-furo[3,2-b]furan-3-yl)-urea] | 3
18 | CC(C)(C)Oc1ccc(O[C@H]2CO[C@H]3[C@@H]2OC[C@@H]3NC(=O)NC2CCCCC2)cc1 [Example 116, 1-[(3S,3aR,6S,6aS)-6-(4-tert-Butoxy-phenoxy)-hexahydro-furo[3,2-b]furan-3-yl]-3-cyclohexyl-urea] | 3
19 | N#CCc1cccc(O[C@H]2CO[C@H]3[C@@H]2OC[C@@H]3NC(=O)NC2CCCCC2)c1 [Example 117, 1-[(3S,3aR,6S,6aS)-6-(3-Cyano-methyl-phenoxy)-hexahydro-furo-[3,2-b]furan-3-yl]-3-cyclohexyl-urea] | 5
20 | O=C(NC1CCCCC1)N[C@H]1CO[C@H]2[C@@H]1OC[C@@H]2Oc1ccc2c(c1)C(=O)CC2 [Example 118, 1-Cyclohexyl-3-[(3S,3aR,6S,6aS)-6-(3-oxo-indan-5-yloxy)-hexahydro-furo[3,2-b]furan-3-yl]-urea] | 3
21 | CN1CCN(C(=O)c2ccc(O[C@H]3CO[C@H]4[C@@H]3OC[C@@H]4NC(=O)NC3CCCCC3)cc2)CC1 [Example 119, 1-Cyclohexyl-3-{(3S,3aR,6S,6aS)-6-[4-(4-methyl-piperazine-1-carbonyl)-phenoxy]-hexahydro-furo[3,2-b]furan-3-yl}-urea; trifluoroacetate] | 21
22 | O=C(NC1CCCCC1)N[C@H]1CO[C@H]2[C@@H]1OC[C@@H]2Oc1ccc(C(=O)N2CCOCC2)cc1 [Example 120, 1-Cyclohexyl-3-{(3S,3aR,6S,6aS)-6-[4-(morpholine-4-carbonyl)-phenoxy]-hexahydro-furo[3,2-b]furan-3-yl}-urea] | 7
23 | Cc1nc(-c2ccc(O[C@H]3CO[C@H]4[C@@H]3OC[C@@H]4NC(=O)NC3CCCCC3)cc2)no1 [Example 121, 1-Cyclohexyl-3-{(3S,3aR,6S,6aS)-6-[4-(5-methyl-[1,2,4]oxadiazol-3-yl)-phenoxy]-hexahydro-furo[3,2-b]furan-3-yl}-urea] | 1
24 | CCC(OC)(c1cccc(O[C@H]2CO[C@H]3[C@@H]2OC[C@@H]3NC(=O)NC2CCCCC2)c1)c1nccs1 (stereo partly drawn) [Example 122, 1-Cyclohexyl-3-{(3S,3aR,6S,6aS)-6-[3-(1-methoxy-1-thiazol-2-yl-propyl)-phenoxy]-hexahydro-furo[3,2-b]furan-3-yl}-urea] | 2
